Test results published in patent US8299048B2, “Hexahydrocyclopentyl[f]indazole sulfonamides and derivatives thereof as selective glucocorticoid receptor modulators” (Merck Sharp & Dohme Corp., priority 2008, dated 2012).
pEC50: −log10 of the molar value.

Biological target: T1, human GR (Homo sapiens, UniProt P04150)
T1 sequence (P04150 1-777): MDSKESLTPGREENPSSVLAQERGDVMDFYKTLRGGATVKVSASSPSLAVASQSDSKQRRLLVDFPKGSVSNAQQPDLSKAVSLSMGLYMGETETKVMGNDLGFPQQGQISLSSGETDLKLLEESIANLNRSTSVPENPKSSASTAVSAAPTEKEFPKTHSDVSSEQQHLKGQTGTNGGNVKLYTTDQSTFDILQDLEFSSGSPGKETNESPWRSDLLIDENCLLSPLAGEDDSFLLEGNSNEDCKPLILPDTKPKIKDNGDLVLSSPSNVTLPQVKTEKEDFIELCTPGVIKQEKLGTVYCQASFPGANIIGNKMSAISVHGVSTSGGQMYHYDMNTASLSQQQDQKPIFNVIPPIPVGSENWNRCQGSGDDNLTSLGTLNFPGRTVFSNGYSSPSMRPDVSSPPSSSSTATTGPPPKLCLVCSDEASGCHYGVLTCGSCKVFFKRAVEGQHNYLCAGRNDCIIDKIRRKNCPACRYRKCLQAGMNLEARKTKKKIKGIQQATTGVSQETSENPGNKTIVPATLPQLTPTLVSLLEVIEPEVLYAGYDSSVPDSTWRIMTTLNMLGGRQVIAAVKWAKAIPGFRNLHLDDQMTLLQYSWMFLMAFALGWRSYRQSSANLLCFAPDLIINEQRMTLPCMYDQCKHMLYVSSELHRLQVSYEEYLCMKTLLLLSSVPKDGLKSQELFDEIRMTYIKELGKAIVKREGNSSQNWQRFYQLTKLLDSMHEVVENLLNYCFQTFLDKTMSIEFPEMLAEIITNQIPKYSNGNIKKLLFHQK
Test: Trans-Activation Modulation of Glucocorticoid Receptor (GRAMMER), MMTV-LUC reporter, agonist mode
Format: cell-based
Design: endogenous in cells
Conditions: for pEC50: inflection point, read-out: Transactivation A549 Cells GRAMMER IP; for Emax: A549, A549 cells, read-out: Transactivation A549 Cells GRAMMER Emax
Summary of the method: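 Readout is luciferase from a modified MMTV LTR promoter after 24 h compound exposure alongside 10 nM dexamethasone (100% activity reference), DMSO ≤1%.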

pEC50 (A549 cells)	Emax (maximum activity)	Structure (SMILES)	Transactivation A549 Cells GRAMMER Emax (A549 cells, maximum activity)
6.66	50.5%	C[C@]12Cc3cnn(-c4ccc(F)cc4)c3C=C1CC[C@@H]2CN(CC1CC1)S(=O)(=O)c1ccccc1F [Example 2, N-(cyclopropylmethyl)-2-fluoro-N-{[(4αR,5S)-1-(4-fluorophenyl)-4α-methyl-1,4,4α,5,6,7-hexahydrocyclopenta[f]indazol-5-yl]methyl}benzenesulfonamide]	–
6.43	39.3%	C=CCN(C[C@H]1CCC2=Cc3c(cnn3-c3ccc(F)cc3)C[C@@]21C)S(=O)(=O)c1ccccc1F [Example 3, N-allyl-2-fluoro-N-{[(4αR,5S)-1-(4-fluorophenyl)-4α-methyl-1,4,4α,5,6,7-hexahydrocyclopenta[f]indazol-5-yl]methyl}benzenesulfonamide]	–
6.53	16.9%	C[C@]12Cc3cnn(-c4ccc(F)cc4)c3C=C1CC[C@@H]2CN(CC1CC1)S(=O)(=O)c1ccccc1C(F)(F)F [Example 4, N-(cyclopropylmethyl)-N-{[(4αR,5S)-1-(4-fluorophenyl)-4α-methyl-1,4,4α,5,6,7-hexahydrocyclopenta[f]indazol-5-yl]methyl}-2-(trifluoromethyl)benzenesulfonamide]	–
5.85	2.1%	C[C@]12Cc3cnn(-c4ccc(F)cc4)c3C=C1CC[C@@H]2CN(CCO)S(=O)(=O)Cc1cccc(C(F)(F)F)c1 [Example 63, N-{[(4αR,5S)-1-(4-fluorophenyl)-4α-methyl-1,4,4α,5,6,7-hexahydrocyclopenta[f]indazol-5-yl]methyl}-N-(2-hydroxyethyl)-1-[3-(trifluoromethyl)phenyl]methanesulfonamide]	–
6.21	7.9%	Cc1ccc(S(=O)(=O)N(CCO)C[C@H]2CCC3=Cc4c(cnn4-c4ccc(F)cc4)C[C@@]32C)s1 [Example 64, N-{[(4αR,5S)-1-(4-fluorophenyl)-4α-methyl-1,4,4α,5,6,7-hexahydrocyclopenta[f]indazol-5-yl]methyl}-N-(2-hydroxyethyl)-5-methylthiophene-2-sulfonamide]	–
5.96	19.6%	Cn1cc(S(=O)(=O)N(CCO)C[C@H]2CCC3=Cc4c(cnn4-c4ccc(F)cc4)C[C@@]32C)c(C(F)(F)F)n1 [Example 65, N-{[(4αR,5S)-1-(4-fluorophenyl)-4α-methyl-1,4,4α,5,6,7-hexahydrocyclopenta[f]indazol-5-yl]methyl}-N-(2-hydroxyethyl)-1-methyl-3-(trifluoromethyl)-1H-pyrazole-4-sulfonamide]	–
5.93	5.3%	Cc1cc(S(=O)(=O)N(CCO)C[C@H]2CCC3=Cc4c(cnn4-c4ccc(F)cc4)C[C@@]32C)c(C)o1 [Example 66, N-{[(4αR,5S)-1-(4-fluorophenyl)-4α-methyl-1,4,4α,5,6,7-hexahydrocyclopenta[f]indazol-5-yl]methyl}-N-(2-hydroxyethyl)-2,5-dimethylfuran-3-sulfonamide]	–
6.35	6.5%	Cn1nc(C(F)(F)F)cc1-c1ccc(S(=O)(=O)N(CCO)C[C@H]2CCC3=Cc4c(cnn4-c4ccc(F)cc4)C[C@@]32C)s1 [Example 67, N-{[(4αR,5S)-1-(4-fluorophenyl)-4α-methyl-1,4,4α,5,6,7-hexahydrocyclopenta[f]indazol-5-yl]methyl}-N-(2-hydroxyethyl)-5-[1-methyl-3-(trifluoromethyl)-1H-pyrazole-5-yl]thiophene-2-sulfonamide]	–
6.02	10%	C[C@]12Cc3cnn(-c4ccc(F)cc4)c3C=C1CC[C@@H]2CN(CCO)S(=O)(=O)c1cccc(C#N)c1 [Example 68, 3-cyano-N-{[(4αR,5S)-1-(4-fluorophenyl)-4α-methyl-1,4,4α,5,6,7-hexahydrocyclopenta[f]indazol-5-yl]methyl}-N-(2-hydroxyethyl)benezenesulfonamide]	–
6.07	12.6%	C[C@]12Cc3cnn(-c4ccc(F)cc4)c3C=C1CC[C@@H]2CN(CCO)S(=O)(=O)c1ccc(Oc2cccc(Cl)c2C#N)cc1 [Example 69, 4-(3-chloro-2-cyanophenoxy)-N-{[(4αR,5S)-1-(4-fluorophenyl)-4α-methyl-1,4,4α,5,6,7-hexahydrocyclopenta[f]indazol-5-yl]methyl}-N-(2-hydroxyethyl)benzenesulfonamide]	–
6.25	25.8%	C[C@]12Cc3cnn(-c4ccc(F)cc4)c3C=C1CC[C@@H]2CN(CCO)S(=O)(=O)c1ccccc1C(F)(F)F [Example 70, N-{[(4αR,5S)-1-(4-fluorophenyl)-4α-methyl-1,4,4α,5,6,7-hexahydrocyclopenta[f]indazol-5-yl]methyl}-N-(2-hydroxyethyl)-2-(trifluoromethyl)benzenesulfonamide]	–
6.59	63.1%	Cc1noc(C)c1S(=O)(=O)N(CCO)C[C@H]1CCC2=Cc3c(cnn3-c3ccc(F)cc3)C[C@@]21C [Example 71, N-{[(4αR,5S)-1-(4-fluorophenyl)-4α-methyl-1,4,4α,5,6,7-hexahydrocyclopenta[f]indazol-5-yl]methyl}-N-(2-hydroxyethyl)-3,5-dimethylisoxazole-4-sulfonamide]	–
6.32	35.3%	C[C@]12Cc3cnn(-c4ccc(F)cc4)c3C=C1CC[C@@H]2CN(CCO)S(=O)(=O)c1cc(F)cc(F)c1 [Example 72]	–
6.44	25.4%	COC(=O)c1ccccc1S(=O)(=O)N(CCO)C[C@H]1CCC2=Cc3c(cnn3-c3ccc(F)cc3)C[C@@]21C [Example 73, methyl 2-{[{[(4αR,5S)-1-(4-fluorophenyl)-4α-methyl-1,4,4α,5,6,7-hexahydrocyclopenta[f]indazol-5-yl]methyl}(2-hydroxyethyl)amino]sulfonyl}benzoate]	–
5.99	34.1%	C[C@]12Cc3cnn(-c4ccc(F)cc4)c3C=C1CC[C@@H]2CN(CCO)S(=O)(=O)c1ccc(Oc2ccccn2)cc1 [Example 74, N-{[(4αR,5S)-1-(4-fluorophenyl)-4α-methyl-1,4,4α,5,6,7-hexahydrocyclopenta[f]indazol-5-yl]methyl}-N-(2-hydroxyethyl)-4-(pyridin-2-yloxy)benzenesulfonamide]	–
6.35	14.4%	C[C@]12Cc3cnn(-c4ccc(F)cc4)c3C=C1CC[C@@H]2CN(CCO)S(=O)(=O)Cc1ccccc1 [Example 75, N-{[(4αR,5S)-1-(4-fluorophenyl)-4α-methyl-1,4,4α,5,6,7-hexahydrocyclopenta[f]indazol-5-yl]methyl}-N-(2-hydroxyethyl)-1-phenylmethanesulfonamide]	–
5.71	3.5%	CNC(=O)Nc1ccc(S(=O)(=O)N(CCO)C[C@H]2CCC3=Cc4c(cnn4-c4ccc(F)cc4)C[C@@]32C)c(Cl)c1 [Example 76, 2-chloro-N-{[(4αR,5S)-1-(4-fluorophenyl)-4α-methyl-1,4,4α,5,6,7-hexahydrocyclopenta[f]indazol-5-yl]methyl}-N-(2-hydroxyethyl)-4-{[(methylamino)carbonyl]amino}-benzenesulfonamide]	–
6.05	17.9%	Cc1ccccc1S(=O)(=O)N(CCO)C[C@H]1CCC2=Cc3c(cnn3-c3ccc(F)cc3)C[C@@]21C [Example 77, N-{[(4αR,5S)-1-(4-fluorophenyl)-4α-methyl-1,4,4α,5,6,7-hexahydrocyclopenta[f]indazol-5-yl]methyl}-N-(2-hydroxyethyl)-2-methylbenzenesulfonamide]	–
6.19	50.6%	C[C@]12Cc3cnn(-c4ccc(F)cc4)c3C=C1CC[C@@H]2CN(CCO)S(=O)(=O)c1ccccc1C#N [Example 78, 2-cyano-N-{[(4αR,5S)-1-(4-fluorophenyl)-4α-methyl-1,4,4α,5,6,7-hexahydrocyclopenta[f]indazol-5-yl]methyl}-N-(2-hydroxyethyl)benzenesulfonamide]	–
5.88	7.5%	C[C@]12Cc3cnn(-c4ccc(F)cc4)c3C=C1CC[C@@H]2CN(CCO)S(=O)(=O)c1ccc(Oc2ccccc2)cc1 [Example 79, N-{[(4αR,5S)-1-(4-fluorophenyl)-4α-methyl-1,4,4α,5,6,7-hexahydrocyclopenta[f]indazol-5-yl]methyl}-N-(2-hydroxyethyl)-4-phenoxybenzenesulfonamide]	–

Structure (SMILES)	pEC50 (A549 cells)	Emax (maximum activity)	Transactivation A549 Cells GRAMMER Emax (A549 cells, maximum activity)
C[C@]12Cc3cnn(-c4ccc(F)cc4)c3C=C1CC[C@@H]2CN(CCc1ccccn1)S(=O)(=O)Cc1cccnc1 [Example 1, N-{[(4αR,5S)-1-(4-Fluorophenyl)-4α-methyl-1,4,4α,5,6,7-hexahydrocyclopenta[f]indazol-5-yl]methyl}-1-pyridin-3-yl-N-(2-pyridin-2-ylethyl)methanesulfonamide]	6.46	–	31.6%
